Test results from patent US20140288040A1, “SUBSTITUTED BENZYLAMINE COMPOUNDS, THEIR USE IN MEDICINE, AND IN PARTICULAR THE TREATMENT OF HEPATITIS C VIRUS (HCV) INFECTION” (ASTEX THERAPEUTICS LIMITED, priority 2011, published 2014).
Where a name gives a salt, the structure may show the parent alone. Read-outs that look alike come from different tables or passages of the source.

What was measured:
[1] = system: HCV subgenomic replicon in Huh-7 cells; assay: Replicon assay, EC50 luciferase readout; assay type: cell-based, hepatitis C virus (HCV); conditions: Hepatitis C virus
Protocol: The activities of compounds of the invention against HCV in a cellular environment were analysed using a replicon assay as described below.
Thus, Huh-7 cells persistently infected with an HCV-RNA construct (Bartenschlager, R. Hepatitis C replicons: potential role for drug development. Nature Rev. Drug Discov. 1, 911-916 (2002)) comprising: 5′ and 3′ non-translated regions (NTR); the non-structural genes NS3 to NS5b; as well as the G418 drug resistance gene, neomycin, (for selection of cells carrying HCV replicon RNA) fused to the firefly Luciferase reporter gene (pFK13889luc-ubi-neoNS3-3′ET), were used to determine the cell based antiviral activity of compounds using luciferase activity as an indirect readout of HCV RNA load. In this assay […] huh-7 cells persistently infected with the HCV subgenomic replicon construct above were platedwell in a 96 well tissue culture plate. The cells were allowed to attach overnight in DMEM medium supplemented with 10% FBS 1% NEAA, and 250 μgml gentamicin. The following day the medium was replaced with 200 μlwell of fresh medium as described above lacking gentamicin. […] Plates were then incubated at 37° C. in an atmosphere of 5% CO2 and air for 72 h. […] The plate was then read at 535 nm (excitation) and 590 nm (emission) on a SpectraMax Gemini reader (Molecular Devices) to determine the number of viable cells by measuring the conversion of rezasurin (Alamar blue) to resorufin in response to mitochondrial activity. In order to determine the antiviral effect of these compounds EC50 values were determined by measuring the luciferase activity of the cells. Alamar blue solution was removed from the wells and replaced with 100 μlwell of medium along with 100 μlwell of Bright-Glo reagent and incubated at room temperature for 5 minutes before transferring 100 μlwell to a white bottom 96 well plate to read in a luminometer as described in the Bright-Glo Luciferase Assay System protocol (promega).

[2] = molecular target: T1, HCV NS3 protease (full length NS34a) (Hepatitis C virus genotype 1b, UniProt P26663); assay: HCV NS3 protease assay (FRET, full length NS34a); assay type: biochemical; conditions: for inhibition at 0.01 µM: read-out: Activity % inhibition @ 0.01 μM; for inhibition at 0.03 µM: read-out: Activity % inhibition @ 0.03 μM, 0.03 μM compound
T1 construct: The protease activity of the full length NS34a was measured using a FRET-based assay; made in house
T1 sequence (P26663 1658-1711): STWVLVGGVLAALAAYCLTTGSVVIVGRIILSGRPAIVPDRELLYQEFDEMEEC
T1 sequence (P26663 1027-1657): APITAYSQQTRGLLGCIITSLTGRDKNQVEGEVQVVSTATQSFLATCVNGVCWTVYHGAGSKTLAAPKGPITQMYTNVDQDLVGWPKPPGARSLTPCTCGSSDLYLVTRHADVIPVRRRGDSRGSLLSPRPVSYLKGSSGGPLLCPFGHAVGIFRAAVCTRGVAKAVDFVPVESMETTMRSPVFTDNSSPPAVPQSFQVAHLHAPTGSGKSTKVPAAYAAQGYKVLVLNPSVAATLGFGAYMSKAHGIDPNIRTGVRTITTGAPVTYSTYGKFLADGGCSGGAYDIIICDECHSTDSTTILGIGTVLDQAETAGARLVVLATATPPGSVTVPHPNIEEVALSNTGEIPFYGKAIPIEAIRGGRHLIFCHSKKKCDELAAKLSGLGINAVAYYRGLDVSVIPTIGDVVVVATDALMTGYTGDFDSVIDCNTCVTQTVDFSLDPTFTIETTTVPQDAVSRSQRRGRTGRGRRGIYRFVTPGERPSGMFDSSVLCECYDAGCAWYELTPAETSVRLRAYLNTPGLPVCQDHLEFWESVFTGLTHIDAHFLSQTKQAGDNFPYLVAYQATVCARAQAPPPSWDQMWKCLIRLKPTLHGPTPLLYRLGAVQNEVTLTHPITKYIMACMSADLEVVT
Procedure, shortened: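 Full-length NS34a incubated with compound and an NS4AB cleavage-site FRET peptide (QXL520 quencher, 5-FAMsp fluorophore) in 50 mM Tris pH8, 20 mM DTT, 1% CHAPS, 10% glycerol, 5% DMSO. Fluorescence followed for 30 minutes at room temperature; IC50 from initial rates of replicate progress curves.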

[3] = Huh-7, 72 h, Huh-7 replicon cells, 72 h, single value, or second value of a pair x:y, read-out: Activity EC50 (μM) (EC50 luciferase readout)
[4] = protease activity of full length NS34a, FRET peptide substrate, read-out: Activity IC50
[5] = IC50 values of 10-150 μM against the protease activity of the full length NS34a, or at least 40% inhibition of protease activity at a concentration of 100 μM

CCC(N)c1ccc(F)c(Oc2ccccc2)c1F (stereo not shown) [Example 3, 1-(2,4-Difluoro-3-phenoxy-phenyl)-propylamine. hydrochloride]
EC50 [1, 3]: 22 µM | IC50 [2, 4]: 2.1 µM

CC[C@@H](N[C@@H](C)CC(=O)NCCN)c1ccc(Cl)c(Oc2ccccc2)c1F [Example 224]
EC50 [1, 3]: 0.0088 µM | inhibition at 0.01 µM [2]: 65.5%

CC[C@H](N[C@H](C)CC(N)=O)c1ccc(Cl)c(Oc2ccccc2)c1F (single isomer, unassigned) [Example 83]
EC50 [1, 3]: 17 µM | IC50 [2, 4]: 6.7 µM

CC[C@@H](N[C@@H](C)C(=O)NCCCN)c1ccc(Cl)c(Oc2ccccc2)c1F [Example 331]
EC50 [1, 3]: > 10 µM | inhibition at 0.03 µM [2]: 49.5%

CC[C@H](N[C@H](C)CO)c1ccc(F)c(Oc2ccccc2)c1F [Example 65]
EC50 [1, 3]: 12 µM | IC50 [2, 4]: 2.1 µM

CC[C@@H](N)c1ccc(Cl)c(Oc2ccccc2)c1F [Example 78]
EC50 [1, 3]: 9.6 µM | IC50 [2, 4]: 1.2 µM

C[C@@H](CC(=O)NCCN)NCc1ccc(Cl)c(Oc2ccccc2)c1F [Example 329]
EC50 [1, 3]: 4 µM | inhibition at 0.03 µM [2]: 57%

CCC(N[C@H]1CC[C@@H](N)CC1)c1ccc(F)c(Oc2ccccc2)c1F (stereo partly drawn) [Example 6, cis-N-[1-(2,4-Difluoro-3-phenoxy-phenyl)-propyl]-cyclohexane-1,4-diamine dihydrochloride]
EC50 [1, 3]: 0.14 µM | IC50 [2, 5]: 10 to 150 µM

CC[C@@H](N[C@@H](C)CC(N)=O)c1ccc(Cl)c(Oc2ccc(NC(C)=O)c(C)c2)c1F [Example 244, (S)-3-{(R)-1-[3-(4-Acetylamino-3-methyl-phenoxy)-4-chloro-2-fluoro-phenyl]-propylamino}-butyramide.hydrochloride]
EC50 [1, 3]: 0.099 µM | IC50 [2, 4]: 0.47 µM

CC[C@H](NC(C)CO)c1ccc(Cl)c(Oc2ccccc2)c1F (stereo partly shown) [Example 81]
EC50 [1, 3]: 11 µM | IC50 [2, 4]: 0.39 µM

CC[C@@H](N[C@@H](C)CC(=O)NN)c1ccc(Cl)c(Oc2ccccc2)c1F [Example 154]
EC50 [1, 3]: 17 µM | IC50 [2, 4]: 0.18 µM

CC[C@@H](N[C@@H](C)CC(N)=O)c1ccc(Cl)c(Oc2cccc(CNS(C)(=O)=O)c2)c1F [Example 216]
EC50 [1, 3]: > 10 µM | IC50 [2, 4]: 0.97 µM

CC[C@@H](N[C@@H](C)CC(=O)NCCNC)c1ccc(Cl)c(Oc2ccccc2)c1F [Example 241]
EC50 [1, 3]: 0.98 µM | inhibition at 0.01 µM ([2]; 0.01 μM compound): 47%

CC[C@@H](N[C@H](C)CC(N)=O)c1ccc(Cl)c(Oc2ccc(N)c(Cl)c2)c1F [Example 267]
EC50 [1, 3]: > 10 µM | IC50 [2, 4]: 0.48 µM

CCC(NCC(C)O)c1ccc(F)c(Oc2ccccc2)c1F (mixture of isomers) [Example 53, 1-[1-(2,4-Difluoro-3-phenoxy-phenyl)-propylamino]-propan-2-ol.hydrochloride]
EC50 [1, 3]: 26 µM | IC50 [2, 4]: 5 µM

CCCC(N)c1ccc(F)c(Oc2ccccc2)c1F (stereo not shown) [Example 12]
EC50 [1, 3]: 10 µM | IC50 [2, 4]: 1.2 µM

CCC(NCc1[nH]cnc1C)c1ccc(F)c(Oc2ccccc2)c1F (stereo not shown) [Example 24]
EC50 [1, 3]: 18 µM | IC50 [2, 5]: 10 to 150 µM

CC[C@@H](NCCC(N)=O)c1ccc(Cl)c(Oc2ccccc2)c1F [Example 97, 3-[(R)-1-(4-Chloro-2-fluoro-3-phenoxy-phenyl)-propylamino]-propionamide.hydrochloride]
EC50 [1, 3]: > 10 µM | IC50 [2, 4]: 0.84 µM

N[C@@H](c1ccc(F)c(Oc2ccccc2)c1F)[C@H]1CCOC1 (relative stereo) [Example 62, C-(2,4-Difluoro-3-phenoxy-phenyl)—C-(tetrahydro-furan-3-yl)-methylamine.hydrochloride]
EC50 [1, 3]: > 30 µM | IC50 [2, 4]: 7.2 µM

CCC(NCCCO)c1ccc(F)c(Oc2ccccc2)c1F (stereo not shown) [Example 56, 3-[1-(2,4-Difluoro-3-phenoxy-phenyl)-propylamino]-propan-1-ol.hydrochloride]
EC50 [1, 3]: 11 µM | IC50 [2, 4]: 1.1 µM

CC[C@H](N[C@@H](C)CC(N)=O)c1ccc(Cl)c(Oc2ccccc2)c1Cl [Example 324]
EC50 [1, 3]: > 10 µM | IC50 [2, 4]: 1.8 µM

CCC(NCC1CC1)c1ccc(F)c(Oc2ccccc2)c1F (stereo not shown) [Example 22]
EC50 [1, 3]: 6.6 µM | IC50 [2, 4]: 3.2 µM

CCC(NC(C)CO)c1ccc(F)c(Oc2ccccc2)c1F (stereo not shown) [Example 32]
EC50 [1, 3]: 8 µM | IC50 [2, 4]: 0.88 µM

CCC(NCCC(N)=O)c1ccc(F)c(Oc2ccccc2)c1F (stereo not shown) [Example 71]
EC50 [1, 3]: > 30 µM | IC50 [2, 4]: 0.95 µM

CC[C@@H](N[C@@H](C)CC(=O)NC(C)(C)CN)c1ccc(Cl)c(Oc2ccccc2)c1F [Example 252]
EC50 [1, 3]: 0.88 µM | IC50 [2, 4]: 1.9 µM

CCC[C@@H](N[C@@H](C)CC(N)=O)c1ccc(Cl)c(Oc2ccccc2)c1F [Example 125]
EC50 [1, 3]: 0.38 µM | IC50 [2, 4]: 0.23 µM

CC[C@@H](N[C@@H](C)c1cn[nH]c1)c1ccc(Cl)c(Oc2ccccc2)c1F [Example 145A, [(R)-1-(4-Chloro-2-fluoro-3-phenoxy-phenyl)-propyl]-[(S)-1-(1H-pyrazol-4-yl)-ethyl]-amine. dihydrochloride]
EC50 [1, 3]: 9.5 µM | IC50 [2, 4]: 7.4 µM

CCC(NCCO)c1ccc(F)c(Oc2ccccc2)c1F (stereo not shown) [Example 45, 2-[1-(2,4-Difluoro-3-phenoxy-phenyl)-propylamino]-ethanol. hydrochloride]
EC50 [1, 3]: 9.1 µM | IC50 [2, 4]: 1.7 µM

C[C@@H](CC(N)=O)N[C@@H](CC1CCNCC1)c1ccc(F)c(Oc2ccccc2)c1F [Example 98]
EC50 [1, 3]: > 10 µM | IC50 [2, 4]: 1.6 µM

C[C@@H](CC(N)=O)N[C@H](CC1CCNCC1)c1ccc(F)c(Oc2ccccc2)c1F [Example 84]
EC50 [1, 3]: 18 µM | IC50 [2, 4]: 0.45 µM

CC[C@@H](N[C@@H](C)CC(=O)NCCN)c1ccc(Cl)c(Oc2ccc(N)c(C)c2)c1F [Example 238B, (S)—N-(2-Amino-ethyl)-3-{(R)-1-[3-(4-amino-3-methyl-phenoxy)-4-chloro-2-fluoro-phenyl]-propylamino}-butyramide]
EC50 [1, 3]: 0.03 µM | EC50 ([1]; Huh-7, replicon assay, set in line with previous observations, read-out: pre-determined EC50 set for the combination experiments): 0.03 µM | inhibition at 0.03 µM [2]: 58%

CC[C@@H](N[C@@H](C)CC(=O)NCCCN)c1ccc(Cl)c(Oc2ccccc2)c1F [Example 240]
EC50 [1, 3]: 8.9 µM | inhibition at 0.01 µM ([2]; 0.01 μM compound): 42%

CC[C@@H](N[C@@H](C)CC(N)=O)c1ccc(Cl)c(Oc2ccc3c(c2)C(C)(C)CN3)c1F [Example 322]
EC50 [1, 3]: 1.2 µM | IC50 [2, 4]: 0.27 µM

CC[C@@H](N[C@H](C)CC(=O)NCCN)c1ccc(Cl)c(Oc2ccc(N)c(C)c2)c1F [Example 239]
EC50 [1, 3]: 0.97 µM | inhibition at 0.03 µM [2]: 41%

CC[C@@H](N[C@@H](C)CC(=O)N[C@H](C)CO)c1ccc(Cl)c(Oc2ccccc2)c1F [Example 207]
EC50 ([1]; Huh-7, 72 h, read-out: Activity EC50 (μM) (EC50 luciferase readout), Huh-7 replicon cells, 72 h, single value, or second value of a pair x:y): > 10 µM | IC50 [2, 4]: 0.21 µM

CCC(NCCC1CCCNC1)c1ccc(F)c(Oc2ccccc2)c1F (stereo not shown) [Example 27]
EC50 [1, 3]: 0.26 µM | IC50 [2, 4]: 1 µM

CC[C@H](N[C@@H](C)CC(N)=O)c1ccc(F)c(Oc2ccccc2)c1F [Example 70]
EC50 [1, 3]: 27 µM | IC50 [2, 4]: 0.73 µM

CC[C@@H](N)c1ccc(Cl)c(Oc2cccc(CO)c2)c1F [Example 115]
EC50 [1, 3]: > 10 µM | IC50 [2, 4]: 1.8 µM

N[C@H]1CC[C@H](NCc2ccc(Cl)c(Oc3ccccc3)c2F)CC1 [Example 271, trans-N-(4-Chloro-2-fluoro-3-phenoxy-benzyl)-cyclohexane-1,4-diamine. dihydrochloride]
EC50 [1, 3]: 0.34 µM | IC50 [2, 4]: 0.26 µM

CC[C@@H](N[C@@H](C)C(=O)NCCN)c1ccc(Cl)c(Oc2ccccc2)c1F [Example 9, (S)—N-(2-Amino-ethyl)-2-[(R)-1-(4-chloro-2-fluoro-3-phenoxy-phenyl)-propylamino]-propionamide dihydrochloride]
EC50 [1, 3]: 10 µM | inhibition at 0.01 µM [2]: 40.5%

N[C@H](c1ccc(F)c(Oc2ccccc2)c1F)[C@H]1CCCNC1 [Example 60, C-(2,4-Difluoro-3-phenoxy-phenyl)-C-piperidin-3-yl-methylamine.dihydrochloride]
EC50 [1, 3]: 3 µM | IC50 [2, 5]: 10 to 150 µM

CS(=O)(=O)Nc1cccc(Oc2c(F)ccc(CN[C@H]3CC[C@H](N)CC3)c2F)c1 [Example 284]
EC50 [1, 3]: > 10 µM | IC50 [2, 4]: 1.4 µM
